Experimental data taken from PubChem BioAssay (NCI).
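Growth conditions: 96-well plates. Treatment: test compound, 48 hours, 5 concentrations. Analysis: linear interpolation between bracketing concentrations; unreached endpoints set to highest concentration. TGI denotes the concentration required for complete inhibition of growth.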

Experiments:
Assay in all cases: growth of human tumour cells (NCI), 48 h
A549 NSCLC = tested on: A549 NSCLC
NCI/ADR-RES ovarian = tested on: NCI/ADR-RES ovarian
HCT-15 colon = tested on: HCT-15 colon
K-562 leukemia = tested on: K-562 leukemia
UO-31 renal = tested on: UO-31 renal
IGROV1 ovarian = tested on: IGROV1 ovarian
UACC-257 melanoma = tested on: UACC-257 melanoma
NCI-H226 lung = tested on: NCI-H226 lung
HCT-116 colon = tested on: HCT-116 colon
RPMI-8226 leukemia = tested on: RPMI-8226 leukemia
CAKI-1 renal = tested on: CAKI-1 renal
T-47D breast = tested on: T-47D breast
NCI-H522 lung = tested on: NCI-H522 lung
SF-268 CNS = tested on: SF-268 CNS
HOP-62 NSCLC = tested on: HOP-62 NSCLC
SF-295 CNS = tested on: SF-295 CNS
HT29 colon = tested on: HT29 colon
SR leukemia = tested on: SR leukemia
HS 578T breast = tested on: HS 578T breast
LOX IMVI melanoma = tested on: LOX IMVI melanoma
UACC-62 melanoma = tested on: UACC-62 melanoma
SK-MEL-28 melanoma = tested on: SK-MEL-28 melanoma
MCF7 breast = tested on: MCF7 breast
KM12 colon = tested on: KM12 colon
ACHN renal = tested on: ACHN renal
HCC-2998 colon = tested on: HCC-2998 colon
TK-10 renal = tested on: TK-10 renal
SN12C renal = tested on: SN12C renal
A498 renal = tested on: A498 renal
SNB-19 CNS = tested on: SNB-19 CNS
M14 melanoma = tested on: M14 melanoma
MDA-N = tested on: MDA-N
OVCAR-5 ovarian = tested on: OVCAR-5 ovarian
MALME-3M melanoma = tested on: MALME-3M melanoma
DU-145 prostate = tested on: DU-145 prostate
NCI-H460 lung = tested on: NCI-H460 lung
EKVX NSCLC = tested on: EKVX NSCLC
SK-MEL-5 melanoma = tested on: SK-MEL-5 melanoma
786-0 renal = tested on: 786-0 renal
SW-620 colon = tested on: SW-620 colon
RXF 393 renal = tested on: RXF 393 renal
HOP-92 NSCLC = tested on: HOP-92 NSCLC
SK-OV-3 ovarian = tested on: SK-OV-3 ovarian
COLO 205 colon = tested on: COLO 205 colon
PC-3 prostate = tested on: PC-3 prostate
MOLT-4 leukemia = tested on: MOLT-4 leukemia
U251 CNS = tested on: U251 CNS
NCI-H23 lung = tested on: NCI-H23 lung
OVCAR-8 ovarian = tested on: OVCAR-8 ovarian
CCRF-CEM leukemia = tested on: CCRF-CEM leukemia
OVCAR-3 ovarian = tested on: OVCAR-3 ovarian
MDA-MB-231 breast = tested on: MDA-MB-231 breast
OVCAR-4 ovarian = tested on: OVCAR-4 ovarian
MDA-MB-435 = tested on: MDA-MB-435
SF-539 CNS = tested on: SF-539 CNS
SK-MEL-2 melanoma = tested on: SK-MEL-2 melanoma

## CC(=O)Oc1cc2c[n+](C)c3c4cc(OC(C)=O)c(OC(C)=O)cc4ccc3c2cc1OC(C)=O
A549 NSCLC
  TGI: > 100 µM
NCI/ADR-RES ovarian
  TGI: > 100 µM
HCT-15 colon
  TGI: > 100 µM
K-562 leukemia
  TGI: > 100 µM
UO-31 renal
  TGI: 9.46 µM
IGROV1 ovarian
  TGI: > 100 µM
UACC-257 melanoma
  TGI: > 100 µM
NCI-H226 lung
  TGI: > 100 µM
HCT-116 colon
  TGI: > 32.5 µM
RPMI-8226 leukemia
  TGI: > 100 µM
CAKI-1 renal
  TGI: > 100 µM
T-47D breast
  TGI: > 100 µM
NCI-H522 lung
  TGI: > 100 µM
SF-268 CNS
  TGI: > 100 µM
HOP-62 NSCLC
  TGI: > 100 µM
SF-295 CNS
  TGI: > 57.8 µM
HT29 colon
  TGI: 26.2 µM
SR leukemia
  TGI: > 100 µM
HS 578T breast
  TGI: > 100 µM
LOX IMVI melanoma
  TGI: > 100 µM
UACC-62 melanoma
  TGI: > 100 µM
SK-MEL-28 melanoma
  TGI: > 100 µM
MCF7 breast
  TGI: > 100 µM
KM12 colon
  TGI: > 100 µM
ACHN renal
  TGI: > 100 µM
HCC-2998 colon
  TGI: > 100 µM
TK-10 renal
  TGI: > 100 µM
SN12C renal
  TGI: > 100 µM
A498 renal
  TGI: > 65.3 µM
SNB-19 CNS
  TGI: > 100 µM
M14 melanoma
  TGI: > 48.4 µM
MDA-N
  TGI: > 100 µM
OVCAR-5 ovarian
  TGI: > 50.1 µM
MALME-3M melanoma
  TGI: > 100 µM
DU-145 prostate
  TGI: > 100 µM
NCI-H460 lung
  TGI: > 100 µM
EKVX NSCLC
  TGI: 73.4 µM
SK-MEL-5 melanoma
  TGI: > 61.4 µM
786-0 renal
  TGI: > 100 µM
SW-620 colon
  TGI: > 100 µM
RXF 393 renal
  TGI: 11 µM
HOP-92 NSCLC
  TGI: > 100 µM
SK-OV-3 ovarian
  TGI: > 100 µM
COLO 205 colon
  TGI: > 100 µM
PC-3 prostate
  TGI: > 100 µM
MOLT-4 leukemia
  TGI: > 100 µM
U251 CNS
  TGI: > 100 µM
NCI-H23 lung
  TGI: > 100 µM
OVCAR-8 ovarian
  TGI: > 100 µM

## COC(=O)CCCc1ccc2c(c1)CC1(Cc3ccccc3C1)C2
A549 NSCLC
  TGI: > 100 µM
CCRF-CEM leukemia
  TGI: 71.6 µM
NCI/ADR-RES ovarian
  TGI: > 100 µM
HCT-15 colon
  TGI: 97.3 µM
UO-31 renal
  TGI: > 100 µM
IGROV1 ovarian
  TGI: > 100 µM
UACC-257 melanoma
  TGI: > 100 µM
NCI-H226 lung
  TGI: > 100 µM
OVCAR-3 ovarian
  TGI: > 100 µM
HCT-116 colon
  TGI: 78.6 µM
RPMI-8226 leukemia
  TGI: 85.5 µM
T-47D breast
  TGI: > 100 µM
MDA-MB-231 breast
  TGI: > 100 µM
NCI-H522 lung
  TGI: > 100 µM
OVCAR-4 ovarian
  TGI: > 100 µM
HOP-62 NSCLC
  TGI: > 100 µM
MDA-MB-435
  TGI: 61.1 µM
SF-295 CNS
  TGI: > 100 µM
HT29 colon
  TGI: > 100 µM
HS 578T breast
  TGI: > 100 µM
LOX IMVI melanoma
  TGI: > 100 µM
UACC-62 melanoma
  TGI: > 100 µM
MCF7 breast
  TGI: > 100 µM
KM12 colon
  TGI: > 100 µM
SF-539 CNS
  TGI: > 100 µM
ACHN renal
  TGI: > 100 µM
HCC-2998 colon
  TGI: > 100 µM
TK-10 renal
  TGI: > 100 µM
SN12C renal
  TGI: > 100 µM
A498 renal
  TGI: > 100 µM
M14 melanoma
  TGI: > 100 µM
SK-MEL-2 melanoma
  TGI: 56.1 µM
MDA-N
  TGI: 53.6 µM
OVCAR-5 ovarian
  TGI: > 100 µM
MALME-3M melanoma
  TGI: > 100 µM
EKVX NSCLC
  TGI: > 100 µM
SK-MEL-5 melanoma
  TGI: 59.7 µM
786-0 renal
  TGI: > 100 µM
RXF 393 renal
  TGI: > 100 µM
HOP-92 NSCLC
  TGI: > 100 µM
SK-OV-3 ovarian
  TGI: > 100 µM
COLO 205 colon
  TGI: 62.5 µM
PC-3 prostate
  TGI: > 100 µM
MOLT-4 leukemia
  TGI: 15.5 µM
U251 CNS
  TGI: > 100 µM
NCI-H23 lung
  TGI: > 100 µM
OVCAR-8 ovarian
  TGI: > 100 µM
